The values that follow come from patent US11426402B2, “IRE1 activating compounds for use in therapy” (The Scripps Research Institute, priority 2019, dated 2022).

For data set [1], the system named is liver. The experiment in a line: Hepatic triglyceride content and gluconeogenic gene expression in DIO mice. It counts as in vivo, mouse. The settings on record: 6 weeks post dosing. The text has this:
(§1) FIGS. 8A-8E. Oral glucose tolerance test in DIO mice treated with either Vehicle or 474 for 3 weeks (n=8) (FIG. 8A). Serum glucose and insulin levels post 4 weeks of dosing with 474 or vehicle (FIG. 8B). Glucose stimulated insulin secretion in islets isolated from 474 or vehicle treated mice. (FIG. 8C). Hepatic triglyceride content (FIG. 8D) and gene expression profiles of gluconeogenic genes (FIG. 8E) at 6 weeks post dosing.
(§2) This effect can be rationalized, at least in part, by enhanced pancreatic f-cell function in 474-treated […], as shown by our studies in isolated pancreatic islets from vehicle- and 474-treated mice. […] Given the well-documented link between IRE1 and hepatic metabolism in T2D^55, we also examined markers of liver function after 474 treatment. We found reduced liver triglyceride accumulation in 474-treated mice relative to controls (FIG. 80).

For data set [2], the system named is SHSY5Y cells. The experiment in a line: CellTiterGlo ATP levels in SHSY5Y cells overexpressing APP SW. Format: cell-based. The conditions noted are these: APP SW overexpressing cells cultured in galactose, 10 μM, 72 hours. As to the method:
(§3) FIGS. 6A-6C. Histograms showing TMRE staining of SH-SY5Y cells transiently expressing empty vector (Mock) or Swedish mutant APP in the presence or absence of 474 (10 μM) for 72 hours (FIG. 6A). Quantification of TMRE staining in (A). Error bars represent SEM for n=3 replicates. Statistics calculated from one-tailed Student's t-test. *p<0.05, **p<0.01, ***p<0.001 (FIG. 613). Graph showing relative luminescence from CellTiterGlo assay of SH-SY5Y cells transiently expressing empty vector or Swedish mutant APP cultured in galactose media for 72 hours in the presence or absence of IRE1 activator 474 (10 μM). Error bars represent SEM for n=3 replicates. Statistics calculated from one-tailed Student's t-test. *p<0.05, **p<0.01, ***p<0.001 (FIG. 6C).
For determination of relative cellular ATP levels, SHSY5Y cells were seeded into flat black, poly-D-lysine coated 96-well plates (Corning). […] Luminescence was then measured in an Infinite F200 PRO plate reader (Tecan and corrected for background signal. All measurements were performed in biologic triplicate.
Mitochondrial depolarization decreases the capacity for cells to produce ATP through oxidative phosphorylation at the inner mitochondrial membrane. […] Accordingly, ATP levels were monitored in SHSY5Y cells overexpressing APP^SW and incubated in media that was supplemented with glucose or galactose. […]
In general terms: ATP-based viability assays read luminescence as a measure of living cells.

For data set [3], the system named is Diet-Induced Obese (DIO) mice. In words: Glucose tolerance, serum glucose and insulin in DIO mice. Format: in vivo, mouse. The conditions noted are these: 4 weeks of dosing.
From the text: as §1
(§4) To test the efficacy of pharmacologic IRE1 activation in mitigating T2D, we chronically administered 474 by once-daily IP injections at 50 mg/kg for a period of 6 weeks to Diet-Induced Obese (DIO) mice, a model of T2D.
as §2

Data set [4] deals with IRE1 target genes. The experiment in a line: Liver RNA sequencing of DIO mice, IRE1 targets. The settings on record: once-daily IP 50 mg/kg, 6 weeks. It counts as in vivo, mouse. How it is done: (§5) FIGS. 7A-7D. RT-PCR of Xbp1s and the IRE1/XBP1s target gene Erdj4 from adipose tissue post single IP dose of 474 (FIG. 7A). Liver RNAseq profiles of ATF6, IRE1 and PERK target genes expressed as log 2 fold change of chronic 474 treatment compared to vehicle (FIG. 7B). Body weight (FIG. 7C) and food intake (FIG. 70) over 6 weeks of dosing.
as §4

For data set [5], the system named is SHSY5Y cells. The experiment in a line: TMRE staining of mitochondrial membrane potential in SHSY5Y cells. The conditions noted are these: 10 μM, 72 hours. Format: cell-based. How it is done:
as §3
Cells were treated as indicated then incubated with TMRE dye (200 nM) for 30 mins at 37° C. Samples were collected by trypsinization. Trypsin was neutralized by washing into cell culture media and then samples were washed twice in DPBS. […] Fluorescence intensity of TMRE was recorded on the PE channel of a Novocyte Flow Cytometer (ACEA Biosciences, Inc.). Data are presented as mean of the fluorescence intensity from 3 experiments. For each experiment, 10,000 cells per condition in triplicates were recorded.
Next, mitochondrial membrane potential was monitored in SHSY5Y cells overexpressing APP^SW and that had been treated with 474. […]

Data set [6] deals with IRE1-specific target genes. In words: RT-PCR of Xbp1s and Erdj4 in adipose tissue after single IP dose. It counts as in vivo.
From the text: as §5
Obesity has grown into a major public health crisis over the past few decades, enhancing the risk of numerous complications such as type 2 diabetes (T2D). […] of Xbp1, the key transcription factor downstream of IRE1, causes insulin resistance through increased accumulation of ER stress^33. Conversely, overexpression of active Xbp1s in the livers of ob/ob mice restores insulin signaling and reduces gluconeogenesis through the targeted degradation of a key metabolic regulator, FoxO1^55. IRE1 function is also critical in the maintenance of pancreatic β-cell function and glucose stimulated-insulin secretion^56. Although these genetic studies highlight the therapeutic potential of targeting the IRE1-XBP1s signaling axis for T2D and related metabolic disorders, no highly-selective pharmacological IRE1 activators have been available until the present disclosure's provision for screening and optimization of a lead molecule, 474.

In the case of `Cc1ccc(OCCN(C)C(=O)Cn2cc(NC(=O)CCOc3ccccc3)cn2)cc1` [Compound 474], in data set [1], the “expression of genes associated with glucose metabolism in liver” value is recorded as “reductions”. In data set [1] (relative to controls), the liver triglyceride accumulation entry is listed as “reduced”. Moreover, in data set [2], the ATP levels entry is “increased”. Further, in data set [3], the basal insulin levels entry was “more prominent decrease” and the fasting glucose result is recorded as “significant reduction”. In addition, in data set [4], the “Xbp1 splicing in liver” value is “robust Xbp1splicing” and the “downstream IRE1 targets in liver” value is “selective activation”. Further, in data set [5] (SHSY5Y overexpressing APP SW), the “APP SW-associated reductions in mitochondrial membrane potential” value is recorded as “prevented”. Besides, the mitochondrial membrane potential result in data set [5] (mock-transfected cells) is listed as “did not influence”. For the same molecule, in data set [6], the “IRE1-specific target genes in adipose tissue” value was “induction” and the bioavailability result is recorded as “readily bioavailable”.
